These are literature values, as cited in US9555118B2, “Robust controlled-release peptide formulations” (CAMURUS AB, priority 2011, dated 2017).

*1 amine or outer side, *2 acyl side, *3 side chain or, on linkers, in order; H or OH if unused. Where a SMILES comes first, the peptide text is derived from it. Side-chain parts run from the residue outwards. [ ]: non-standard residue; d: D form. The star is where a group is joined. Ethylenediamine = C(CN[*:2])N[*:1]; Hyp = O=C(O)[C@@H]1C[C@@H](O)CN1; Phg = N[C@H](C(=O)O)c1ccccc1; CO = O=C([*:1])[*:2]; Bn = c1ccc(C*)cc1

In data set [1] the test system is somatostatin receptors (SSTR1-SSTR5).
The conditions of data set [2]: single subcutaneous dose, human plasma.

For the compound `C[C@@H](O)[C@@H]1NC(=O)[C@H](CCCCN)NC(=O)[C@@H](Cc2c[nH]c3ccccc23)NC(=O)[C@H](Cc2ccccc2)NC(=O)[C@@H](NC(=O)[C@H](N)Cc2ccccc2)CSSC[C@@H](C(=O)N[C@H](CO)[C@@H](C)O)NC1=O` [Octreotide, D-Phe-Cys-Phe-D-Trp-Lys-Thr-Cys-Thr-ol (2-7 disulphide bridge)], the Terminal half-life entry (in vivo) was “around 1.7 hours”. Also, the Somatostatin receptor selectivity result in data set [1] is “high selectivity for SSTR2 and SSTR5”.

For `NCCCC[C@@H]1NC(=O)[C@@H](Cc2c[nH]c3ccccc23)NC(=O)[C@H](c2ccccc2)NC(=O)[C@@H]2C[C@@H](OC(=O)NCCN)CN2C(=O)[C@H](Cc2ccccc2)NC(=O)[C@H](Cc2ccc(OCc3ccccc3)cc2)NC1=O` [Pasireotide] (cyclo([Hyp]([CO-Ethylenediamine])[Phg][dW]KY(Bn)F)), the “Initial half-life following the peak” value in data set [2] is 2 to 3 h. Moreover, in data set [1], the Somatostatin receptor affinity entry was “high affinity for somatostatin receptor subtypes sstr1,2,3 and sstr5”.

In the case of “Ala-Gly-Cys-Lys-Asn-Phe-Phe-Trp-Lys-Thr-Phe-Thr-Ser-Cys [SST-14]”, the Biological half-life (natural SST-14) is recorded as 1-3 minutes. In addition, the Somatostatin receptor affinity result in data set [1] is “equally high affinity”.
